Test results from patent US20060194800A1, “Pteridine derivatives as nitric oxide synthase activators” (University of Strathclyde, priority 2005, published 2006).
“Also recorded” adds a separate entry of the source.

Legend:
rat pulmonary artery [1] = assay: Rat pulmonary artery ring relaxation (endogenous tetrahydrobiopterin present); conditions: normal rings, phenylephrine-contracted
Experimental: Rings (5 mm long) of rat pulmonary artery and aorta, were supported on a pair of intraluminal wires at 1 gm tension for one hour and then contracted with their EC50 phenylephrine concentration, which for pulmonary artery was 3.6×10^−8 M (derived from preliminary experiments) and for aorta was 11.8×10^−8 M (from the previously published literature). The rings were then relaxed with carbachol (10 μM). If the relaxation to carbachol was >75%, then the tissues were used to generate dose responses by addition of tetrahydrobiopterin (BH4) or the analogues. Stock BH4 was stored at −20° C. and the dilutions were prepared using saline just before adding the drug into the bath. Solutions of analogues were stored at 4° C. Cumulatively increasing concentrations of the analogues were added to the bath and the extent of relaxation was measured when it had stabilised. Another ring from the same rat was treated in parallel with the solvent for the analogue. The solvent used was NH4OH. The results are shown graphically in FIGS. 1 and 2.

rat aorta = assay: BH4 depleted (DAHP) rat aorta relaxation; conditions: DAHP 10^-2 M for 6 h, tetrahydrobiopterin depleted
Experimental: Rat pulmonary artery or aorta rings (as above) were placed in 15 ml tubes containing 2-3 ml of MEM (minimal essential medium) solution containing 0.1% bovine serum albumin, 100 U/ml penicillin and […] streptomycin. Some of the tubes in addition received diamino-hydroxy-pyrimidine (DAHP) 10^−2 M, an inhibitor of GTP cyclohydrolase, the rate-limiting step in tetrahydrobiopterin synthesis. The tubes were incubated at 37° C. for six hours. […] After the incubation with DAHP or the control incubation with the medium (MEM) alone, the rings were removed and then their relaxation in response to the analogue (or solvent NH4OH) was tested as above. Dose response curves of DAHP-treated tissues were compared to the control tissues treated in MEM alone for 6 hrs. The results are shown graphically in FIGS. 3 and 4. The above procedures were used to mimic cardiovascular disease, by treating aorta and pulmonary artery rings with an inhibitor of the enzyme GTP cyclohydrolase, which is the rate-limiting step in the formation of tetrahydrobiopterin by cells. Treatment with this inhibitor, DAHP, for 6 hours reduced endogenous tetrahydrobiopterin levels in arteries to 4% of the normal content. […] This was found in both pulmonary artery and aorta (FIGS. 3 and 4). […] The only effect seen was a contraction—the opposite to the action of WSG1002—at the highest concentration of tetrahydrobiopterin. […]

rat pulmonary artery [2] = assay: BH4 depleted (DAHP) rat pulmonary artery relaxation
Experimental: Rat pulmonary artery or aorta rings (as above) were placed in 15 ml tubes containing 2-3 ml of MEM (minimal essential medium) solution containing 0.1% bovine serum albumin, 100 U/ml penicillin and […] streptomycin. Some of the tubes in addition received diamino-hydroxy-pyrimidine (DAHP) 10^−2 M, an inhibitor of GTP cyclohydrolase, the rate-limiting step in tetrahydrobiopterin synthesis. The tubes were incubated at 37° C. for six hours. […] After the incubation with DAHP or the control incubation with the medium (MEM) alone, the rings were removed and then their relaxation in response to the analogue (or solvent NH4OH) was tested as above. Dose response curves of DAHP-treated tissues were compared to the control tissues treated in MEM alone for 6 hrs. The results are shown graphically in FIGS. 3 and 4. […] Thus WSG1002 is acting to enhance the ability of the endothelium to form NO and is not acting merely as a NO donor. The above procedures were used to mimic cardiovascular disease, by treating aorta and pulmonary artery rings with an inhibitor of the enzyme GTP cyclohydrolase, which is the rate-limiting step in the formation of tetrahydrobiopterin by cells. Treatment with this inhibitor, DAHP, for 6 hours reduced endogenous tetrahydrobiopterin levels in arteries to 4% of the normal content. […] This was found in both pulmonary artery and aorta (FIGS. 3 and 4). […] The only effect seen was a contraction—the opposite to the action of WSG1002—at the highest concentration of tetrahydrobiopterin. […] WSG1002 has an EC50 of approximately 10 nM.

- EC50 (rat pulmonary artery [2]; Rattus norvegicus, DAHP-treated artery rings, tissue not specified): ~10 nM
Structure (SMILES): CC(=O)C1=Nc2c(nc(N)[nH]c2=O)NC1(C)C [wsg1002, 6-Acetyl-2-amino-7,7-dimethyl-7,8-dihydro-3H-pteridin-4-one]
- relaxation of rat pulmonary artery rings (rat pulmonary artery [1]): no action; also recorded: no effect
- relaxation of rat aorta rings (rat aorta): significant and physiologically important vasodilatation; also recorded: significant relaxation
- relaxation of rat pulmonary artery rings (rat pulmonary artery [2]; DAHP 10^-2 M for 6 h, tetrahydrobiopterin depleted): significant and physiologically important vasodilatation; also recorded: substantial relaxation
- relaxation of pulmonary artery ring in presence of L-NAME (rat pulmonary artery [2]; L-NAME 100 μM, same result in normal and DAHP-treated rings): no relaxation
